Source: PMC7615677 (Science translational medicine, 2023)
“Also recorded” adds a separate entry of the source. Like-named read-outs stand apart in the source and are kept apart here.

What was measured:
L. guyanensis = test: Leishmania intramacrophage in vitro assay; type: cell-based; settings: L. guyanensis MHOM/PE/02/PER 054/0
Description: (§1) A drug incubation period of 96 h was applied, and cells were stained with Giemsa for microscopic evaluation of cellular amastigote burdens. Percentage reduction compared to the burden in the infected non-treated control wells was used as a measure for drug activity.

L. infantum = test: Leishmania intramacrophage in vitro assay; type: cell-based
Description: as §1

L. major = test: Leishmania intramacrophage in vitro assay; type: cell-based
Description: as §1

L. panamensis = test: Leishmania intramacrophage in vitro assay; type: cell-based; settings: L. panamensis MHOM/PA/71/LS94
Description: as §1

L. tropica = test: Leishmania intramacrophage in vitro assay; type: cell-based; settings: L. tropica MHOM/AF/2015/HTD7
Description: as §1

[1] = system: T. cruzi (Tulahuen strain); test: In vitro activity against other kinetoplastid parasites; type: cell-based; settings: Trypanosoma cruzi
[2] = In vitro metabolism, cryopreserved hepatocytes; type: in vitro ADME, human
Description: (§2) Cell viability was determined using trypan blue exclusion. The incubation was performed on a plate shaker (Heidolph Titrimax 100, 900 rpm) placed in a humidified incubator (37°C, 7.5% CO2) for 240 min. The reaction was initiated with the addition of compound with samples taken periodically and quenched with the addition of acetonitrile containing internal standards (metolazone and diazepam). Quenched samples were maintained on ice for approximately 20-30 min, centrifuged (for 5 min) and the supernatant analyzed by LC-MS.
(§3) In vitro intrinsic clearance (CLint, μL/min/mg or μL/min/10^6 cells) values were calculated from the apparent first order degradation rate constant divided by the microsome concentration or the hepatocyte cell number (10^6 viable cells/mL). In vitro CLint values were then divided by the fraction unbound in the in vitro test system (to give CLint,u) and scaled to in vivo values (mL/min/kg) using published physiological scaling factors ([28]). Blood clearance in each species was then calculated using the well-stirred model of hepatic extraction (equation 2) where Q is the hepatic blood flow and fu,blood is calculated from fu,plasma/B:P: [2] PredictedCLblood=Q x fu,blood x CLint,u/Q+fu,blood x CLint,u
(§4) Blood clearance values were converted to plasma clearance by multiplying by the B:P.

[3] = In vitro metabolism, cryopreserved hepatocytes; type: in vitro ADME, dog
Description: as §2, §3, §4

[4] = system: hiPSc-CMs (cardiomyocytes); test: hiPSc-CM multielectrode (MEA) assay; type: cell-based, human; settings: 0.37, 1.11, 3.33, 10 and 30 µM
Description: The hIPSc-CM assay was conducted to identify DNDI-6174-induced changes in field potential duration (FPD ≈ QT interval), total spike amplitude (TSA ≈ QRS interval) and beat rate. Inducible pluripotent stem cell-derived cardiomyocytes (hiPSc-CMs, iCell2, Cellular Dynamics) were maintained in culture medium (50,000 cells/well) for 7 days. Full media changes were done every 48 h. Following baseline recording, and right after the 1 hour compound treatment time (n=8/concentration, 5 concentrations), 1 min recording of activity was taken daily starting on Day 3 through Day 7 using the Maestro multi-electrode Array System (Axion BioSystems; 48 or 96-well plate). 3μM Quinidine was used as a control for hERG and hNaV1.5 block.

[5] = In vitro cytotoxicity assay; type: cell-based; settings: human, THP1 human monocytic leukaemia cells
COX1 = target: T1, COX1 (Homo sapiens, UniProt P23219); test: In vitro pharmacology panel (Eurofins); type: biochemical; settings: read-out: activity (% of DMSO control)
T1 construct: purchased Eurofins (Cerep/DiscoverX SafetyScreen44 in vitro pharmacology panel)
Excerpt: (§5) Listed values represent the percent change relative to the DMSO control activity. When an IC50 had to be determined, eight different concentrations were included. All values are the mean of assay readout duplicates.

COX2 = target: T2, COX2 (Homo sapiens, UniProt P35354); test: In vitro pharmacology panel (Eurofins); type: biochemical; settings: read-out: activity (% of DMSO control)
T2 construct: purchased Eurofins (Cerep/DiscoverX SafetyScreen44 in vitro pharmacology panel)
Excerpt: as §5

Lck kinase = target: T3, Lck kinase (Homo sapiens, UniProt P06239); test: In vitro pharmacology panel (Eurofins); type: biochemical; settings: read-out: activity (% of DMSO control)
T3 construct: purchased Eurofins (Cerep/DiscoverX SafetyScreen44 in vitro pharmacology panel)
Excerpt: as §5

PDE3A = target: T4, PDE3A (Homo sapiens, UniProt Q14432); test: In vitro pharmacology panel (Eurofins); type: biochemical
T4 construct: Eurofins (contract assay)
Excerpt: as §5

PDE4D2 = target: T5, PDE4D2 (Homo sapiens, UniProt Q08499); test: In vitro pharmacology panel (Eurofins); type: biochemical
T5 construct: Eurofins (contract assay)
Excerpt: as §5

acetylcholinesterase = target: T6, acetylcholinesterase (Homo sapiens, UniProt P22303); test: In vitro pharmacology panel (Eurofins); type: biochemical; settings: read-out: activity (% of DMSO control)
T6 construct: Eurofins (contract assay)
Excerpt: as §5

CYP2C9 = target: T7, CYP2C9 (Homo sapiens, UniProt P11712); test: Cytochrome P450 inhibition, human liver microsomes; type: in vitro ADME
T7 construct: incubation of isoform-specific substrates with human liver microsomes; from tissue; host or cells: human liver microsomes
Description: The formation of known metabolites mediated by a specific CYP isoform was monitored. CYP isoform-specific pathways (and positive control inhibitors) included CYP1A2: phenacetin O-deethylation (furafylline), CYP2B6: bupropion hydroxylation (PPP), CYP2C8: amodiaquine deethylation (quercetin) CYP2C9: tolbutamide methylhydroxylation (sulfaphenazole), CYP2C19: (S)-mephenytoin 4’-hydroxylation (ticlopidine), CYP2D6: dextromethorphan O-demethylation (quinidine), and CYP3A: midazolam 1’-hydroxylation and testosterone 6β-hydroxylation (ketoconazole). […] The organic solvent content was maintained at less than 1% (v/v). NADPH was added to initiate the reaction which was then quenched by the addition of acetonitrile containing internal standard at specified times. Concentrations of the isoform-specific metabolites were quantified by LC-MS (Waters Xevo TQD triple quadrupole MS coupled to a Waters Acquity UPLC system) relative to calibration standards prepared in pre-quenched microsomal matrix.
Time dependent inhibition was assessed using an “IC50 shift” method based on a previous publication ([44]). […] A shift in the IC50 in the presence of NADPH (relative to the absence) was used as an indication of time dependent inhibition. Reference direct and time-dependent inhibitors were included in the assays.

In vivo pharmacokinetics = test: In vivo pharmacokinetics; parameters: species or system female BALB/c mice; settings: for AUC(0-t) / AUC / Cmax / Cmax at 5 days: mice, 5 days; for AUC(0-t): read-out: AUC0-24 (first dose); for AUC: read-out: AUC96-120 (last dose); for Cmax: read-out: Cmax (first dose); for Cmax at 5 days: read-out: Cmax (last dose)
NaV1.5 = NaV1.5 (Homo sapiens, UniProt Q14524); test: Qube NaV1.5
[6] = L. infantum MHOM/BR/2007/WC (L3015)
[7] = L. infantum MHOM/ES/2016/LLM-2346
[8] = L. infantum MHOM/FR/96/LEM3323 Cl4 MIL-R (miltefosine resistant)
[9] = L. infantum MHOM/FR/96/LEM3323 Cl4 PM-R (paromomycin resistant)
[10] = L. infantum MHOM/MA/67/ITMAP263
[11] = 10 µM, read-out: activity (% of DMSO control)
[12] = female, BALB/c, mouse, plasma, oral 3.6 mg/kg bid
[13] = female, BALB/c, mouse, plasma, oral 7.1 mg/kg bid
[14] = female, BALB/c, mouse, plasma, oral 12.5 mg/kg bid

T4 sequence (Q14432 whole entry): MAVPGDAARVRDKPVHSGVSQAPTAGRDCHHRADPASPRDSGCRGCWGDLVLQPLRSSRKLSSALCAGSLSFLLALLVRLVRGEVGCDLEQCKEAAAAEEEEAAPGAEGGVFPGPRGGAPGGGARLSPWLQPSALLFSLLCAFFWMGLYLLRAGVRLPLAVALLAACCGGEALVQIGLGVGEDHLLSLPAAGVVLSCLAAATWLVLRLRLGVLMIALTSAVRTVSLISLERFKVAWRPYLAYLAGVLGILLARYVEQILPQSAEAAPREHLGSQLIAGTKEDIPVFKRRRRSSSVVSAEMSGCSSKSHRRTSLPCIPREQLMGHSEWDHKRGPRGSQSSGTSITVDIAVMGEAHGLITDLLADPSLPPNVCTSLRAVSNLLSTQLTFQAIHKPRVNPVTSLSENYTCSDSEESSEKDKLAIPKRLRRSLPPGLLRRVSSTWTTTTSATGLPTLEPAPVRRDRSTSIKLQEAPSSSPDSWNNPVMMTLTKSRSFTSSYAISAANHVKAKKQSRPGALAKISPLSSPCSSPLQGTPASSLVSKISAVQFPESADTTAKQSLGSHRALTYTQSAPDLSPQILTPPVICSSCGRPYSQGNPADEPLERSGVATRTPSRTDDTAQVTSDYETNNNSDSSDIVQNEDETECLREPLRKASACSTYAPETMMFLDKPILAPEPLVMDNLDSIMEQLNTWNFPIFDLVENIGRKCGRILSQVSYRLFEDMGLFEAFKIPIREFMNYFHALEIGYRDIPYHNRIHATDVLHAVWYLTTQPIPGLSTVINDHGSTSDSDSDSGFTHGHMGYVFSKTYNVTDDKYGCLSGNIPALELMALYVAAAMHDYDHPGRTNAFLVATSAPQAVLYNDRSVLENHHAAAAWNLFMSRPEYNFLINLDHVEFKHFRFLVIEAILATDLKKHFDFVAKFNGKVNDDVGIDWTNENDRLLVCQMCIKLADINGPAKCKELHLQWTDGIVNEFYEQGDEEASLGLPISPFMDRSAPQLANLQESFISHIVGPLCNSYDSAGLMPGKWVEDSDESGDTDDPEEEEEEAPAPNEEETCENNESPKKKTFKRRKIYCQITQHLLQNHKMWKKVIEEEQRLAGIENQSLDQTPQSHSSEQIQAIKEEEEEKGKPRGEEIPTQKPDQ
T7 sequence (P11712 whole entry, canonical isoform): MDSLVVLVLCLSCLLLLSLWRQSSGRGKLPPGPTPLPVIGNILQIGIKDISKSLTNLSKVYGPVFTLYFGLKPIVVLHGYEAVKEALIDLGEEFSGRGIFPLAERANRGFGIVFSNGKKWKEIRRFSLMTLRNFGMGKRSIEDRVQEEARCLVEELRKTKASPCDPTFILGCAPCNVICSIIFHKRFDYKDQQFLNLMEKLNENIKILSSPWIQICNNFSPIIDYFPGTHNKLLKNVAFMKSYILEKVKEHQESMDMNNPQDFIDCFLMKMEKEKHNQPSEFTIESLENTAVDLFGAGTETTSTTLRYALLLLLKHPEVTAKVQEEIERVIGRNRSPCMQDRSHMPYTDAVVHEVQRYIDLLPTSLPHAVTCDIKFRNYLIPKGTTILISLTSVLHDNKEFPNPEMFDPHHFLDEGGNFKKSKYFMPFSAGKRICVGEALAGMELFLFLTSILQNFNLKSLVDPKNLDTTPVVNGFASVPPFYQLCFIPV
T5 sequence (Q08499 303-809 limits assumed): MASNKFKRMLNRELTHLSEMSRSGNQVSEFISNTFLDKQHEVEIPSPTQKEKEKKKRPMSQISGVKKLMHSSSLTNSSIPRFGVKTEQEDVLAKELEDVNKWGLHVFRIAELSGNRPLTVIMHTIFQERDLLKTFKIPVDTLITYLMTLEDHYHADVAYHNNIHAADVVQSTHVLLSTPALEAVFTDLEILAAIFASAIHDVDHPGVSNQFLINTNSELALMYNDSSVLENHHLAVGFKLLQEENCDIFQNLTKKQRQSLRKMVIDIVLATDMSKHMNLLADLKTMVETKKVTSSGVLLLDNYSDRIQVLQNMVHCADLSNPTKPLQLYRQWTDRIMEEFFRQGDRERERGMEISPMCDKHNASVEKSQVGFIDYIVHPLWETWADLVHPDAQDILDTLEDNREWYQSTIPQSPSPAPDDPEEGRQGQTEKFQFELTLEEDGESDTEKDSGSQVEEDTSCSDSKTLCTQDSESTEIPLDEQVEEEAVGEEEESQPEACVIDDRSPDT
Sequence of NaV1.5 (Q14524 whole entry): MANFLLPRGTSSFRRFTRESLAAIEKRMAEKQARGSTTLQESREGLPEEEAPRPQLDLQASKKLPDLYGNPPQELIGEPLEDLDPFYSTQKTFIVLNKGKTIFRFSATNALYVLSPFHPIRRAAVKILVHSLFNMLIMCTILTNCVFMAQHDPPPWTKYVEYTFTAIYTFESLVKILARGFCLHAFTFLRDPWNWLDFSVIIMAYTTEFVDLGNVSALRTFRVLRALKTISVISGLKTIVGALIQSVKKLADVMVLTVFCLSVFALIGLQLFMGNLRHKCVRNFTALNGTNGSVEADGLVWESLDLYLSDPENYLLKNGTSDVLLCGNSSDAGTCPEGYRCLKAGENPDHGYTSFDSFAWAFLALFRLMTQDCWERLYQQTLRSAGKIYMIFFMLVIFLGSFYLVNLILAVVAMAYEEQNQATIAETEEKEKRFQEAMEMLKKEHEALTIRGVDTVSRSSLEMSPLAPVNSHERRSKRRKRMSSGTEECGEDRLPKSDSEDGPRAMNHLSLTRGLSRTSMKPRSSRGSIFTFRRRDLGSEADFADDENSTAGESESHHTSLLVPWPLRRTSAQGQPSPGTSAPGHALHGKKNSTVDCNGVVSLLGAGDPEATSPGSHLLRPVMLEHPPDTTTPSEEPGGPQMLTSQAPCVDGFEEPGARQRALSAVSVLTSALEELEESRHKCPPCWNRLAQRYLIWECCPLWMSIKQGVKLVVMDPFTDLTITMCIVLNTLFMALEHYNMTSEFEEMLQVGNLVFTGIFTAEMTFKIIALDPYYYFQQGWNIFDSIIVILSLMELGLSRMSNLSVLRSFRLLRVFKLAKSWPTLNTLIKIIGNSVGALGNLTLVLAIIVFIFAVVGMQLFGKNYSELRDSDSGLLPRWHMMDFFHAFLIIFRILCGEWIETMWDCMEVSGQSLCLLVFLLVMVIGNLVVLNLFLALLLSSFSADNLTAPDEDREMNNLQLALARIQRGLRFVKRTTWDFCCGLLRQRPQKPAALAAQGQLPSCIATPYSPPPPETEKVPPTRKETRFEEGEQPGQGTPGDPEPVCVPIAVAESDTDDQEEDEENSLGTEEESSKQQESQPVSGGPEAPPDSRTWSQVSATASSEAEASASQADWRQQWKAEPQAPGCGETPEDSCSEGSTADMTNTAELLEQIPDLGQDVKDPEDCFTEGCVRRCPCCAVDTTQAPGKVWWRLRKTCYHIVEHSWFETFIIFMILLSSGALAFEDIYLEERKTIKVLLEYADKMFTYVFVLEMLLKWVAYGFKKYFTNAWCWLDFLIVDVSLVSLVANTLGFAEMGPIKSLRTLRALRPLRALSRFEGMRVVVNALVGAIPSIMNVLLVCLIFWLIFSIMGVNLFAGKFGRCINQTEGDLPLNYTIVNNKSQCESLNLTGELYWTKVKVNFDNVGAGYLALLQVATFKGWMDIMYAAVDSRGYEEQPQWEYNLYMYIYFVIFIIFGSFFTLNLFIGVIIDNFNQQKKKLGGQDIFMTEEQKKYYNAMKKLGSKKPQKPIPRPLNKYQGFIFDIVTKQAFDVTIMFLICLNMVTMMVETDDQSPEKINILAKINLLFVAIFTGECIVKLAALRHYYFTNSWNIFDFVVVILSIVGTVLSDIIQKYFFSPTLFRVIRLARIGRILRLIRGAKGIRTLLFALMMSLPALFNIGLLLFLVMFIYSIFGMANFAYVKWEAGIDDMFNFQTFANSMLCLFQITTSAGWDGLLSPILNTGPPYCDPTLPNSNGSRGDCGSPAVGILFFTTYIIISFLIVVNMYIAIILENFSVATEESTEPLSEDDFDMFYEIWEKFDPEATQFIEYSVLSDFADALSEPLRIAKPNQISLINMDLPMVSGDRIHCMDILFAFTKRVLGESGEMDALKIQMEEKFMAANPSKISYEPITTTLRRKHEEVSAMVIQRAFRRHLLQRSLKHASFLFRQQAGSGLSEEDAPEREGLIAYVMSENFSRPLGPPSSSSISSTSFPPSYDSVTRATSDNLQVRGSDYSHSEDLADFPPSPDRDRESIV
T6 sequence (P22303 32-614): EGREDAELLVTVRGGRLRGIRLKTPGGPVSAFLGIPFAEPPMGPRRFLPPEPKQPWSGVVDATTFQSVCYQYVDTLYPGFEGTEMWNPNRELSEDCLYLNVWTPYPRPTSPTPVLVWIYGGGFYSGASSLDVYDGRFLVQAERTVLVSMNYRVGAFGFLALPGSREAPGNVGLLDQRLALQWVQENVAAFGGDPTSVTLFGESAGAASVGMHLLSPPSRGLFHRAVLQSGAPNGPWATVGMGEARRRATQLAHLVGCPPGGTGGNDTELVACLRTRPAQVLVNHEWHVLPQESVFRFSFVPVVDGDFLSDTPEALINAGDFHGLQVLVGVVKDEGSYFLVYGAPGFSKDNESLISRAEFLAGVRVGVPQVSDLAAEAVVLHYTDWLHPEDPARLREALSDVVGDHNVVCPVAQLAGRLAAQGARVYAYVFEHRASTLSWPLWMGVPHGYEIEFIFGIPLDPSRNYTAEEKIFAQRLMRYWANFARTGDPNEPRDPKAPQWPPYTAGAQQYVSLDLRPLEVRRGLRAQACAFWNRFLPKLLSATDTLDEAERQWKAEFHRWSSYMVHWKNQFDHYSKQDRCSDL

Cc1[nH]c2nc(N)nc(C)c2c1-c1ccc(C#N)c2c1OCO2 [DNDI-6174]
EC50 (L. guyanensis): 12 nM
EC90 (L. guyanensis): 39 nM
EC50 (L. infantum; [6]): 70 nM
EC90 (L. infantum; [6]): 180 nM
EC50 (L. infantum; [7]): 210 nM
EC90 (L. infantum; [7]): 1520 nM
EC50 (L. infantum; L. infantum MHOM/FR/96/LEM3323): 50 nM
EC90 (L. infantum; L. infantum MHOM/FR/96/LEM3323): 180 nM
EC50 (L. infantum; [8]): 70 nM
EC90 (L. infantum; [8]): 220 nM
EC50 (L. infantum; [9]): 80 nM
EC90 (L. infantum; [9]): 170 nM
EC50 (L. infantum; [10]): 160 nM
EC90 (L. infantum; [10]): 440 nM
EC50 (L. major; L. major MHOM/IL/81/Friedlin): 90 nM
EC90 (L. major; L. major MHOM/IL/81/Friedlin): 900 nM
EC50 (L. major; L. major MHOM/SA/85/JISH118): 740 nM
EC90 (L. major; L. major MHOM/SA/85/JISH118): 11400 nM
EC50 (L. panamensis): 40 nM
EC90 (L. panamensis): 85 nM
EC50 (L. tropica): 360 nM
EC90 (L. tropica): 2180 nM
EC50 [1]: < 5 nM
Hepatocyte predicted in vivo CLplasma ([2]; Human): 0.31 mL/min/kg
hepatocyte CLint at 0.5 µM ([2]; human, cryopreserved hepatocytes): 1.1 ± 0.27 µL/min/1e6 cells
Hepatocyte predicted in vivo CLplasma ([3]; Dog): 0.30 mL/min/kg
hepatocyte CLint at 0.5 µM ([3]; dog, cryopreserved hepatocytes): 1 ± 0.27 µL/min/1e6 cells
field potential duration, spike amplitude and beat period, in words [4]: no notable change in the field potential duration; also recorded: No significant change in the field potential
CC50 [5]: > 50000 nM
remaining activity at 10 µM (COX1): 115%
remaining activity at 10 µM (COX2): 137%
remaining activity at 10 µM (Lck kinase): 100%
remaining activity at 10 µM (PDE3A; [11]): 30.1%
IC50 (PDE3A; human PDE3A): 3360 nM
remaining activity at 10 µM (PDE4D2; [11]): 27.1%
IC50 (PDE4D2; human PDE4D2): 6670 nM
remaining activity at 10 µM (acetylcholinesterase): 96.8%
IC50 (CYP2C9; CYP2C9, read-out: Direct inhibition IC50): 14900 nM
IC50 (CYP2C9; without NADPH preincubation, read-out: Time-dependent inhibition IC50): 13800 nM
increase in Cmax over the 5-day dosing period (In vivo pharmacokinetics; bid dosing in mice): approximately 2 fold
clearance (In vivo pharmacokinetics; female, BALB/c, mouse, plasma, iv, 2 mg/kg, Mouse, read-out: Measured in vivo CLplasma): 7.5 mL/min/kg
AUC(0-t) (In vivo pharmacokinetics; [12]): 10600 ng·h/mL
AUC (In vivo pharmacokinetics; [12]): 15700 ng·h/mL
Cmax (In vivo pharmacokinetics; [12]): 600 ng/mL
Cmax at 5 days (In vivo pharmacokinetics; [12]): 1350 ng/mL
AUC(0-t) (In vivo pharmacokinetics; [13]): 35500 ng·h/mL
AUC (In vivo pharmacokinetics; [13]): 37000 ng·h/mL
Cmax (In vivo pharmacokinetics; [13]): 1930 ng/mL
Cmax at 5 days (In vivo pharmacokinetics; [13]): 3040 ng/mL
AUC(0-t) (In vivo pharmacokinetics; [14]): 94500 ng·h/mL
AUC (In vivo pharmacokinetics; [14]): 93300 ng·h/mL
Cmax (In vivo pharmacokinetics; [14]): 3830 ng/mL
Cmax at 5 days (In vivo pharmacokinetics; [14]): 6810 ng/mL
AUC(0-inf) (In vivo pharmacokinetics; female, BALB/c, plasma, Mouse, intravenous 2.0 mg/kg, read-out: Plasma AUC0-inf): 4470 ng·h/mL
half-life (In vivo pharmacokinetics; female, BALB/c, plasma, Mouse, oral 25 mg/kg, read-out: Apparent t1/2 (converted)): 3.7 h
AUC(0-inf) (In vivo pharmacokinetics; female, BALB/c, plasma, Mouse, oral 25 mg/kg, read-out: Plasma AUC0-∞): 75500 ng·h/mL
IC50 (NaV1.5): > 50000 nM
